Data published in the supplement of paper PMC11208160.

Assay: recombinant barcode read abundance after kanamycin selection (control-corrected) (log10(CPM+1)); higher = more efficient recombination; sequences stand for … in AGTGCAGAGAAAATCGGCCAGTTTTCTCTGCCTGCAGTCCGCATGCCGT…AGATTTATGCAGCGGACTGCCTTTCTCCCAAAGTGATAAACCGGACAGTATCATGGACCGGTTTTCCCGGTAATCCGTATTTGCAAGGTTGGTTTCACT; site = the 11-nt target
Procedure, shortened: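 IS621 bridge RNA target-binding loops were paired with targets in a pooled library tested in E. coli. After co-electroporation with a donor plasmid, cells were plated in two replicates on chloramphenicol/ampicillin LB agar (control) and on chloramphenicol/ampicillin/kanamycin carrying 0.1 mM IPTG. Barcodes at recombinant junctions were counted as counts per million, averaged and control-corrected to give recombination efficiency. Values are log10(CPM+1).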
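Further: IS621 recombinase and bridge RNA in Escherichia coli cells.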

Row | Sequence | recombinant barcode read abundance (log10)
1 | AGTTACACTTGGGTTCTAACCTGTTGCCT (site AGTTACACTAG) | 0.637
2 | AGTTACACTTGGGTTCTAACCTGTTGCCT (site AGTTCCACTAG) | 0.0139
3 | AGTTACACTTGGGTTCTAACCTGTTGCCT (site AGTTGCACTAG) | 0.0991
4 | AGTTACACTTGGGTTCTAACCTGTTGCCT (site AGTTTCACTAG) | 0.0317
5 | AGTTAGCCTTGGGTTCTAACCTGTTGCCT (site AGTAAGCCTAG) | 0.107
6 | AGTTAGCCTTGGGTTCTAACCTGTTGCCT (site AGTCAGCCTAG) | 0.161
7 | AGTTAGCCTTGGGTTCTAACCTGTTGCCT (site AGTGAGCCTAG) | 0.114
8 | AGTTAGCCTTGGGTTCTAACCTGTTGCCT (site AGTTAGCCTAG) | 0.361
9 | AGTTAGTCTTGGGTTCTAACCTGTTGCAG (site AGTTAGTCTCT) | 1.48
10 | AGTTAGTCTTGGGTTCTAACCTGTTGCAG (site GTACGCACTAG) | 0.0583
11 | AGTTCACCTTGGGTTCTAACCTGTTGCTA (site AGTTCACCTTA) | 0.0738
12 | AGTTCACCTTGGGTTCTAACCTGTTGCTA (site GAGGGCTCTCC) | 0.314
13 | AGTTCATCTTGGGTTCTAACCTGTTGCAT (site AGTTCATCTAT) | 0.0989
14 | AGTTCATCTTGGGTTCTAACCTGTTGCAT (site CTAGATGCTTC) | 0
15 | AGTTGCCCTTGGGTTCTAACCTGTTGCCT (site AATTGCCCTAG) | 0.738
16 | AGTTGCCCTTGGGTTCTAACCTGTTGCCT (site ACTTGCCCTAG) | 0.068
17 | AGTTGCCCTTGGGTTCTAACCTGTTGCCT (site AGTTGCCCTAG) | 0.457
18 | AGTTGCCCTTGGGTTCTAACCTGTTGCCT (site ATTTGCCCTAG) | 0.0653
19 | AGTTGGCCTTGGGTTCTAACCTGTTGCGA (site AGTTGGCCTTC) | 0.45
20 | AGTTGGCCTTGGGTTCTAACCTGTTGCGA (site CCACCTTCTAG) | 0.123
21 | AGTTGTCCTTGGGTTCTAACCTGTTGCCT (site AGTTGTCCTAA) | 0.174
22 | AGTTGTCCTTGGGTTCTAACCTGTTGCCT (site AGTTGTCCTAC) | 0.0671

Row | Sequence | recombinant barcode read abundance (log10)
23 | AGTTGTCCTTGGGTTCTAACCTGTTGCCT (site AGTTGTCCTAG) | 0.132
24 | AGTTGTCCTTGGGTTCTAACCTGTTGCCT (site AGTTGTCCTAT) | 0.296
25 | ATAACTACTTGGGTTCTAACCTGTTGCTT (site ATAACTACTAA) | 0.216
26 | ATAACTACTTGGGTTCTAACCTGTTGCTT (site TACCTACCTTC) | 0.0357
27 | ATAAGCCCTTGGGTTCTAACCTGTTGCCT (site AAAAGCCCTAG) | 0.176
28 | ATAAGCCCTTGGGTTCTAACCTGTTGCCT (site ACAAGCCCTAG) | 0.212
29 | ATAAGCCCTTGGGTTCTAACCTGTTGCCT (site AGAAGCCCTAG) | 0.166
30 | ATAAGCCCTTGGGTTCTAACCTGTTGCCT (site ATAAGCCCTAG) | 1.36
31 | ATAAGCTCTTGGGTTCTAACCTGTTGCCT (site ATAAGCTCTAG) | 2.3
32 | ATAAGCTCTTGGGTTCTAACCTGTTGCCT (site CTAAGCTCTAG) | 0.289
33 | ATAAGCTCTTGGGTTCTAACCTGTTGCCT (site GTAAGCTCTAG) | 0.119
34 | ATAAGCTCTTGGGTTCTAACCTGTTGCCT (site TTAAGCTCTAG) | 0.766
35 | ATAAGGACTTGGGTTCTAACCTGTTGCTA (site ATAAGGACTTA) | 2.01
36 | ATAAGGACTTGGGTTCTAACCTGTTGCTA (site ATACGGACTTA) | 0.111
37 | ATAAGGACTTGGGTTCTAACCTGTTGCTA (site ATAGGGACTTA) | 1.26
38 | ATAAGGACTTGGGTTCTAACCTGTTGCTA (site ATATGGACTTA) | 0.52
39 | ATAAGGGCTTGGGTTCTAACCTGTTGCCT (site ATAAATGCTAG) | 0.183
40 | ATAAGGGCTTGGGTTCTAACCTGTTGCCT (site ATAAGGGCTAG) | 0.652
41 | ATAAGTCCTTGGGTTCTAACCTGTTGCCA (site ATAAGTCCTTG) | 0.582
42 | ATAAGTCCTTGGGTTCTAACCTGTTGCCA (site GTAAGTACTTG) | 0.0629
43 | ATACGTACTTGGGTTCTAACCTGTTGCCT (site ATACGTACTAG) | 1.74
44 | ATACGTACTTGGGTTCTAACCTGTTGCCT (site CTACGTACTAG) | 0.0799

Row | Sequence | recombinant barcode read abundance (log10)
45 | ATACGTACTTGGGTTCTAACCTGTTGCCT (site GTACGTACTAG) | 0.067
46 | ATACGTACTTGGGTTCTAACCTGTTGCCT (site TTACGTACTAG) | 0.0363
47 | ATACTACCTTGGGTTCTAACCTGTTGCGG (site ATACTACCTCC) | 1.4
48 | ATACTACCTTGGGTTCTAACCTGTTGCGG (site ATCCCACCTCC) | 0.119
49 | ATATACTCTTGGGTTCTAACCTGTTGCCG (site ATATACTCTCG) | 2.38
50 | ATATACTCTTGGGTTCTAACCTGTTGCCG (site ATCTACTCTAG) | 0.0335
51 | ATATGAGCTTGGGTTCTAACCTGTTGCCG (site ATATGAGCTCG) | 0.307
52 | ATATGAGCTTGGGTTCTAACCTGTTGCCG (site ATATGCGCTCG) | 0.175
53 | ATATGAGCTTGGGTTCTAACCTGTTGCCG (site ATATGGGCTCG) | 0.0468
54 | ATATGAGCTTGGGTTCTAACCTGTTGCCG (site ATATGTGCTCG) | 0.167
55 | ATATGAGCTTGGGTTCTAACCTGTTGCTT (site ACATGACCTAA) | 0.177
56 | ATATGAGCTTGGGTTCTAACCTGTTGCTT (site ATATGAGCTAA) | 0.283
57 | ATCAACCCTTGGGTTCTAACCTGTTGCCA (site ATCAACCCTTG) | 1.04
58 | ATCAACCCTTGGGTTCTAACCTGTTGCCA (site TCGTCTACTGA) | 0.375
59 | ATCACAGCTTGGGTTCTAACCTGTTGCCT (site ATCAAAGCTAG) | 0.136
60 | ATCACAGCTTGGGTTCTAACCTGTTGCCT (site ATCACAGCTAG) | 0.736
61 | ATCACGCCTTGGGTTCTAACCTGTTGCCT (site ACCACGCCTAG) | 0.128
62 | ATCACGCCTTGGGTTCTAACCTGTTGCCT (site ATCACGCCTAG) | 0.544
63 | ATCAGGTCTTGGGTTCTAACCTGTTGCCT (site AACAGGTCTAG) | 0.299
64 | ATCAGGTCTTGGGTTCTAACCTGTTGCCT (site ACCAGGTCTAG) | 0.18
65 | ATCAGGTCTTGGGTTCTAACCTGTTGCCT (site AGCAGGTCTAG) | 0.107
66 | ATCAGGTCTTGGGTTCTAACCTGTTGCCT (site ATCAGGTCTAG) | 0.431
